Results on 14 compounds are retold here after PubChem BioAssay (NCI).

Where “and” joins values, the source holds several entries; their conditions need not be identical. Equal values may be shown once.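 Interpolation was linear, between the two tested concentrations surrounding the appropriate level; five concentrations were tested over 48 hours in 96-well plates. GI50 is the concentration that inhibits growth by half. At the TGI there is no net growth.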

Among the test systems are A549 NSCLC; BT-549 breast; M14 melanoma; MCF7 breast; NCI-H226 lung; NCI/ADR-RES ovarian; SK-MEL-5 melanoma; SNB-19 CNS; TK-10 renal; HOP-92 NSCLC.
What all share (assay): growth of human tumour cells (NCI), 48 h

For the compound `O=S(Nc1ccccc1)c1ccc(N2CCOCC2)cc1` (configuration not stated), the TGI in the experiment with A549 NSCLC, in the experiment on BT-549 breast, in the experiment with M14 melanoma, with MCF7 breast, in the experiment on NCI-H226 lung and with NCI/ADR-RES ovarian was above 100 µM each time. The TGI in the experiment on SK-MEL-5 melanoma, with SNB-19 CNS and in the experiment on TK-10 renal was above 100 µM each time.
As to `CN(C)C(=O)OC1C(=O)N(C)c2ccc(Cl)cc2C2(c3ccccc3)N1C2(Cl)Cl` (configuration not stated), the TGI in the experiment on HOP-92 NSCLC, in the experiment on M14 melanoma, in the experiment with NCI-H226 lung, in the experiment on SK-MEL-5 melanoma and with TK-10 renal was above 100 µM throughout.
For the compound `Cc1ccc(S(=O)(=O)n2c3ccc(Br)cc3c3nc4ccccc4nc32)cc1`, the TGI is above 100 µM with A549 NSCLC; above 100 µM in the experiment on HOP-92 NSCLC; above 100 µM in the experiment on M14 melanoma; 0.879 µM in the experiment on NCI-H226 lung; above 100 µM in the experiment on NCI/ADR-RES ovarian; above 100 µM with SK-MEL-5 melanoma. In addition, the TGI in the experiment with SNB-19 CNS and in the experiment on TK-10 renal was above 100 µM throughout.
Turning to `O=C(NCCCCCCCCCCCCNC(=O)Nc1cccc2ccccc12)Nc1cccc2ccccc12`, the TGI with A549 NSCLC turned out to be 32.9 µM; in the experiment on BT-549 breast, 31.4 µM; in the experiment on HOP-92 NSCLC, 25.9 µM; with M14 melanoma, 43.6 µM; in the experiment with MCF7 breast it was 35.1 µM; in the experiment on NCI/ADR-RES ovarian it was 60.6 µM. Besides, the TGI in the experiment with SK-MEL-5 melanoma is 46.2 µM; in the experiment on SNB-19 CNS it was 30.1 µM; in the experiment with TK-10 renal it was 31.5 µM.
On to `CCOP(=O)(/C=C\n1cc(C)c(=O)[nH]c1=O)OCC`, for which the TGI in the experiment on A549 NSCLC, in the experiment with BT-549 breast, with M14 melanoma, in the experiment with MCF7 breast, in the experiment with NCI-H226 lung and in the experiment on NCI/ADR-RES ovarian was above 100 µM each time. The TGI in the experiment on SK-MEL-5 melanoma, with SNB-19 CNS and in the experiment with TK-10 renal was above 100 µM each time.
For `CCOc1ccc(N/C(=C(/C(Cl)=C(/Cl)N(CC)CC)[N+](=O)[O-])n2nnc3ccccc32)cc1`, the TGI in the experiment on A549 NSCLC was above 100 µM; with BT-549 breast it was 49.4 µM; in the experiment with M14 melanoma, 79 µM; in the experiment on MCF7 breast it was above 100 µM; in the experiment with NCI-H226 lung it was above 100 µM; in the experiment with NCI/ADR-RES ovarian it was 53.9 µM. The TGI with SNB-19 CNS was above 100 µM.
For `NC(=O)NNc1nc(-c2ccccc2)cs1`, the TGI in the experiment with A549 NSCLC, with BT-549 breast, with M14 melanoma, with MCF7 breast, with NCI-H226 lung and with NCI/ADR-RES ovarian was above 100 µM throughout. Further, the TGI in the experiment on SK-MEL-5 melanoma, with SNB-19 CNS and in the experiment on TK-10 renal was above 100 µM in each case.
As for `Cc1cc(C)nc(SC2=C(Nc3ccc(C)c(Cl)c3)C(=O)N(Cc3ccccc3)C2=O)n1`, the GI50 with A549 NSCLC, in the experiment with BT-549 breast, in the experiment on HOP-92 NSCLC, in the experiment with M14 melanoma, in the experiment on NCI-H226 lung and in the experiment with NCI/ADR-RES ovarian was above 160 µM throughout. For the same compound, the GI50 in the experiment with SNB-19 CNS and in the experiment on TK-10 renal was above 160 µM throughout. In addition, the TGI in the experiment with A549 NSCLC, with BT-549 breast, in the experiment with HOP-92 NSCLC, in the experiment on M14 melanoma, in the experiment with NCI-H226 lung and in the experiment on NCI/ADR-RES ovarian was above 160 µM each time. In addition, the TGI with SNB-19 CNS and in the experiment on TK-10 renal was above 160 µM throughout.
Regarding `[Cl][Sn]([c]1ccccc1)([c]1ccccc1)[c]1ccccc1`, the TGI was 0.41 µM and 0.176 µM and 0.0469 µM in the experiment on A549 NSCLC; 0.968 µM in the experiment with BT-549 breast; 0.423 µM and 0.484 µM and 0.433 µM with NCI-H226 lung; 0.325 µM and 0.242 µM and 0.158 µM with SK-MEL-5 melanoma; 1.07 µM and 0.24 µM and 0.129 µM with SNB-19 CNS; 0.604 µM and 0.283 µM in the experiment on TK-10 renal. The GI50 in the experiment with BT-549 breast is 0.282 µM; in the experiment with HOP-92 NSCLC, 0.0939 µM and 0.122 µM and 0.0139 µM; in the experiment on NCI-H226 lung, 0.194 µM and 0.271 µM and 0.278 µM; in the experiment on SK-MEL-5 melanoma it was 0.166 µM and 0.114 µM and 0.0408 µM; in the experiment with SNB-19 CNS it was 0.314 µM and 0.113 µM and 0.0355 µM; with TK-10 renal it was 0.24 µM and 0.148 µM.
With `COc1ccc2c3c1OC1C(=O)C=CC4(CC2)N(C)CCC314` (configuration not stated), the TGI in the experiment with A549 NSCLC was 84.1 µM; with BT-549 breast, 90.8 µM; in the experiment with HOP-92 NSCLC it was above 100 µM; with M14 melanoma it was 49.6 µM; in the experiment with MCF7 breast it was above 100 µM; with NCI/ADR-RES ovarian, above 100 µM. Besides, the TGI is 24.4 µM in the experiment on SK-MEL-5 melanoma, 76.9 µM in the experiment with SNB-19 CNS and above 100 µM in the experiment with TK-10 renal.
As for `C/C=C/c1cc(=O)c([C@@H]2OC(=O)c3cc(OC)cc(OC)c32)co1`, the TGI in the experiment on A549 NSCLC, in the experiment on HOP-92 NSCLC, in the experiment on M14 melanoma, in the experiment with NCI-H226 lung, in the experiment on SK-MEL-5 melanoma and with SNB-19 CNS was above 100 µM in each case. Further, the TGI in the experiment on TK-10 renal is above 100 µM.
For `COc1cc2ccc(=O)oc2cc1O`, the TGI in the experiment on A549 NSCLC is 320 µM; in the experiment on HOP-92 NSCLC, above 522 µM; with MCF7 breast it was 476 µM; with NCI-H226 lung it was 283 µM; in the experiment on NCI/ADR-RES ovarian, 277 µM; in the experiment on SK-MEL-5 melanoma it was 302 µM. The compound also gave a TGI in the experiment with SNB-19 CNS of 432 µM.
On to `CC(=O)Oc1cc2c(cc1OC(C)=O)OCC(c1ccc(C)cc1)C2` (configuration not stated), for which the TGI in the experiment on A549 NSCLC is 64.6 µM; in the experiment on HOP-92 NSCLC, 29 µM; in the experiment with MCF7 breast, 50.4 µM; in the experiment with NCI-H226 lung, 62.2 µM; in the experiment with NCI/ADR-RES ovarian, 58.3 µM; with SK-MEL-5 melanoma, 13.6 µM. The TGI in the experiment on SNB-19 CNS was found to be 124 µM.
As for `Cc1cc(S(=O)(=O)N/C(=C(\C#N)C(=O)c2ccc(Cl)cc2)[n+]2ccc(N(C)C)cc2)c([S-])cc1Cl`, the TGI in the experiment with A549 NSCLC, in the experiment on BT-549 breast, in the experiment on M14 melanoma, with MCF7 breast, in the experiment with NCI-H226 lung and in the experiment with NCI/ADR-RES ovarian was above 100 µM throughout. Besides, the TGI in the experiment on SK-MEL-5 melanoma and in the experiment on TK-10 renal was above 100 µM in each case.
